Entries after “also recorded” stand apart in the source; their conditions may differ. Where a SMILES comes first, the peptide text is derived from it.
Assays:
Schgr-sNPFR [1] = experiment: Calcium assay, aequorin bioluminescence in CHO-PAM28-Schgr-sNPFR cells (no Gα16); assay type: cell-based, Schistocerca gregaria; conditions: for EC50: CHO-PAM28 cells without Gα16, aequorin bioluminescence, three independent measurements in duplicate; for maximum response (aequorin bioluminescence): Schgr-sNPF and Schgr-sNPF^4−11 compared with each other
Procedure: (§1) Three cell lines were used in this study. General receptor studies were performed in Chinese Hamster Ovary (CHO)-WTA11 cells, a clone of CHO cells stably coexpressing the promiscuous Gα16 and apoaequorin. To determine the mode of downstream signalling, we used either CHO-PAM28 cells, a clone of CHO cells expressing apoaequorin but not the promiscuous Gα16, or Human Embryonic Kidney (HEK) 293T cells, expressing neither Gα16 nor apoaequorin. All cell lines used in this study were provided by Prof. Dr. M. Parmentier and Dr. M. Dethreux (Université Libre de Bruxelles) and Euroscreen S.A., Belgium.
(§2) The cells were cultured in monolayer, in Dulbecco’s Modified Eagle Medium Nutrient Mixture F12-Ham (DMEM/F12, Invitrogen) containing 10% fetal calf serum (Invitrogen), 100 IU/ml penicillin/streptomycin (Invitrogen). For the CHO-WTA11 cells, 250 µg/ml Zeocin™ (Invitrogen) was added to the medium, while to the medium of CHO-PAM28 cells, 5 µg/ml Puromycin (Invitrogen) was added. The cells were grown at 37°C, with a constant supply of 5% CO2 and split every 3 days.
(§3) Transfections with either Schgr-sNPFR/pcDNA3.1D or empty pcDNA3.1D vector were performed in T75 flasks at ca. 60% confluency. Transfection reagent was prepared by combining 2,5 ml of DMEM/F12, 5 µg of the plasmid DNA and 12.5 µl of PLUS™ Reagent (Invitrogen). After storing the medium at room temperature for 5 minutes, 30 µl Lipofectamine™ LTX (Invitrogen) was added and the transfection medium was added dropwise into 3 ml of culture medium after 30 minutes incubation at room temperature. HEK 293T cells were cotransfected with a reporter construct, consisting of a luciferase gene situated downstream of a cyclic AMP (cAMP) response element (CRE) and promoter.
In the calcium-assays, CHO-WTA11 or CHO-PAM28 cells expressing the Schgr-sNPFR were detached two days after transfection, counted using the NucleoCounter® NC-100™ (Chemometec), and resuspended in DMEM/BSA (DMEM/F12, 10 mM HEPES, 0.1% bovine serum albumin) at a concentration of 5×10^5 cells/ml. Cells where then shielded from light and incubated for 4 h with 5 µM coelenterazine h (Invitrogen), allowing the aequorin holoenzyme to be reconstituted.
After incubation, the cell suspension was injected in wells containing a peptide solution, dissolved in 50 µl BSA medium. After 30 s, 50 µl of 0.1% Triton X-100 was injected, lysing the cells and thus serving as an internal reference. Wells containing no peptide but DMEM/BSA were used as a negative control while wells containing 1 µM ATP were used as a positive control. Light emission was monitored using a Mithras LB 940 Microplate Reader (Berthold technologies).
(§4) Data generated in these experiments were analysed using GraphPad Prism 5 (GraphPad Software).
These two peptides were then further studied with respect to their mode of intracellular signalling. Cell based assays were performed using a CHO-PAM28 cell line, expressing apoaequorin, allowing the detection of increases in the intracellular concentration of calcium ions. […] The calculated EC50 values were both in the nanomolar range.

Schgr-sNPFR [2] = experiment: Calcium assay, aequorin bioluminescence in CHO-WTA11-Schgr-sNPFR cells (promiscuous Gα16); assay type: cell-based, Schistocerca gregaria; conditions: for EC50: CHO-WTA11 cells with Gα16, aequorin/coelenterazine h luminescence, 30 s read, ± (95% confidence interval), three independent measurements in duplicate
Procedure: as §1, §2
Transfections with either Schgr-sNPFR/pcDNA3.1D or empty pcDNA3.1D vector were performed in T75 flasks at ca. 60% confluency. […]
In the calcium-assays, CHO-WTA11 or CHO-PAM28 cells expressing the Schgr-sNPFR were detached two days after transfection, counted using the NucleoCounter® NC-100™ (Chemometec), and resuspended in DMEM/BSA (DMEM/F12, 10 mM HEPES, 0.1% bovine serum albumin) at a concentration of 5×10^5 cells/ml. […]
After incubation, the cell suspension was injected in wells containing a peptide solution, dissolved in 50 µl BSA medium. […] Light emission was monitored using a Mithras LB 940 Microplate Reader (Berthold technologies).
as §4
As putative ligands for the cloned Schistocerca gregaria sNPF receptor, Schgr-sNPF (SNRSPSLRLRFa), Schgr-sNPF^4−11 (SPSLRLRFa) and Schgr-trNPF (YSQVARPRFa) were tested. […] For each of these peptides, the dose-dependent activation of the Schgr-sNPFR was studied in CHO-WTA11 cells and EC50 values were calculated.

adult locusts = experiment: Peptide injection feeding assay (food uptake); assay type: in vivo, Schistocerca gregaria; conditions: for reduction of food uptake: 2 µl of 100 µg/ml injected dorsally, cabbage for one hour, vs saline, n = 20; for effect on food uptake (result in words): normalized to body mass, mean, n = 20, ANOVA with Tukey
Procedure: The desert locusts used in this study were all gregarious adult animals. They were reared under crowded conditions at a constant temperature (32±1°C) and photoperiod (14 h). The locusts were kept at high density (>200 locusts per cage) and fed daily with cabbage and dry oat flakes. In an effort to normalize feeding responses, locusts used in feeding experiments were placed in separate cages and placed on a controlled dietary regimen one week prior to the assay. Locusts were fed for two hours each day (9 h–10 h, 16 h–17 h).
At 9 AM, 2 µl of a 100 µg/ml peptide solution (experimental condition) or saline solution (negative control) was injected dorsally between the first and second abdominal segments using a 710 RN injector (Hamilton). Pieces of cabbage were weighed in advance and presented to the locusts for one hour, after which all animals had stopped feeding. In parallel, similar pieces of cabbage were put in empty cages during the period of the experiment. The relative weight loss of these pieces was used to estimate the effect of evaporation All cabbage leafs were weighed after the feeding assay, total food uptake was calculated and corrected for the weight that was lost by evaporation. The results were analysed using GraphPad Prism 5 (GraphPad Software).

Schgr-sNPFR [3] = experiment: cAMP assay, CRE-luciferase bioluminescence in HEK-293T-Schgr-sNPFR cells; assay type: cell-based, Schistocerca gregaria; conditions: HEK 293T cells; for IC50: 200 µM IBMX + NKH 477, 3 h at 37°C, three independent measurements in duplicate, read-out: IC50 (inhibition of CRE-luciferase reporter expression); for inhibition of the reporter expression (result in words): CRE-luciferase, 200 µM IBMX + NKH 477
Procedure: as §1, §2, §3
HEK 293T cells, cotransfected with the Schgr-sNPFR/pcDNA3.1 vector and the CRE-luciferase construct, were detached two days after transfection, centrifuged and resuspended to a concentration of 10^6 cells/ml in DMEM/F12 containing 200 µM 3-isobutyl-1-methylxanthine (IBMX; Sigma-Aldrich). Fifty µl of this suspension was introduced into in each well of a 96-well-plate. When studying stimulatory effects, peptides were dissolved in DMEM/F12 containing 200 µM IBMX. When studying inhibitory effects, these peptides were dissoved in DMEM/F12 supplemented with 200 µM IBMX and 20 µM NKH 477 (a water-soluble analogue of forskolin; Sigma-Aldrich). […] Light emission, resulting from the luciferase activity, was measured for 5 s/well using the Mithras LB 940 Microplate Reader.
as §4
The possible effect of receptor activation on intracellular cyclic AMP (cAMP) production was analysed in HEK 293T cells that were cotransfected with a CRE-luciferase reporter construct.

With `CC(C)C[C@H](NC(=O)[C@H](CCCNC(=N)N)NC(=O)[C@H](CC(C)C)NC(=O)[C@H](CO)NC(=O)[C@@H]1CCCN1C(=O)[C@@H](N)CO)C(=O)N[C@@H](CCCNC(=N)N)C(=O)N[C@@H](Cc1ccccc1)C(N)=O` [Schgr-sNPF^4−11] (H-SPSLRLRF-NH2) the “increase of aequorin bioluminescence” value (Schgr-sNPFR [1]; CHO-PAM28 cells) was “dose-dependent increase of aequorin bioluminescence”, the EC50 (Schgr-sNPFR [1]) was 32.2 ± 18.2 nM and the “maximum response (aequorin bioluminescence)” value (Schgr-sNPFR [1]; CHO-PAM28 cells) was “markedly higher than those obtained with Schgr-sNPF”. For the same compound, the EC50 (Schgr-sNPFR [2]) was 5.56 ± 1.8 nM, the “reduction of food uptake” value (adult locusts) was 37% and the “effect on food uptake (result in words)” value (adult locusts; ** p<0.01, *** p<0.001) was “significant decrease of food uptake”. The “effect on food uptake (result in words)” value (adult locusts; ** p<0.01, *** p<0.001, listed as sNPF^4−11) was “significant decrease in food uptake”, the IC50 (Schgr-sNPFR [3]) was 0.0955 ± 0.0323 nM and the “inhibition of the reporter expression (result in words)” value (Schgr-sNPFR [3]) was “highly effective”.
With “YSQVARPRFa [Schgr-trNPF, truncated form of Schgr-neuropeptide F, …a]” the “activation of the receptor (result in words)” value (Schgr-sNPFR [2]; CHO-WTA11 cells, aequorin bioluminescence) was “No dose-dependent response was observed; also recorded: not responsive”.
In the case of “SNRSPSLRLRFa [Schgr-sNPF, Schistocerca gregaria short neuropeptide F, […]a]”, the “increase of aequorin bioluminescence” value (Schgr-sNPFR [1]; CHO-PAM28 cells) is reported as “dose-dependent increase of aequorin bioluminescence”, the EC50 (Schgr-sNPFR [1]) is reported as 3.28 ± 2.2 nM and the “maximum response (aequorin bioluminescence)” value (Schgr-sNPFR [1]; CHO-PAM28 cells) is reported as “markedly lower than that of Schgr-sNPF^4−11”. The “agonist character with respect to calcium response” value (Schgr-sNPFR [1]; CHO-PAM28 cells, maximum response lower than that of Schgr-sNPF^4−11) was “partial agonist”, the EC50 (Schgr-sNPFR [2]) was 2.05 ± 0.63 nM and the “reduction of food uptake” value (adult locusts) was 30%. For the same compound, the “effect on food uptake (result in words)” value (adult locusts; ** p<0.01, *** p<0.001) was “significant decrease of food uptake”, the “effect on food uptake (result in words)” value (adult locusts; ** p<0.01, *** p<0.001, listed as sNPF) was “significant decrease in food uptake” and the IC50 (Schgr-sNPFR [3]) was 0.0763 ± 0.0261 nM. For the same compound, the “inhibition of the reporter expression (result in words)” value (Schgr-sNPFR [3]) was “highly effective”.

Reference: paper PMC3537624, “Functional Characterization of the Short Neuropeptide F Receptor in the Desert Locust, Schistocerca gregaria” (PLoS ONE, 2013)
